Like-named read-outs stand apart in the source and are kept apart here. Numbered stars: 1 amine (or outer) side, 2 acyl side, 3 side chain; on linkers, the order of the positions; unused ones are H or OH. Square brackets hold non-standard residues; d marks the D form. Side chains are listed from the residue outwards. Peptide text beside a SMILES is read from it. * marks the point of attachment. γGlu = O=C(O)[C@H](CCC(=O)[*:2])N[*:1]; Palmitoyl = CCCCCCCCCCCCCCCC(=O)*; αMeF = C[C@](N)(Cc1ccccc1)C(=O)O; αMeK = C[C@](N)(CCCCN)C(=O)O; Lauroyl = CCCCCCCCCCCC(=O)*; αMeS = C[C@](N)(CO)C(=O)O; AEEA = NCCOCCOCC(=O)O; Aib = CC(C)(N)C(=O)O
Columns and labels:
Type in all cases: cell-based
[1] = molecular target: T1, human GLP-1 receptor (GLP-1R) (Homo sapiens, UniProt P43220); assay: cAMP assay, human GLP-1R cells
T1 construct: expressed in transfected cells
T1 sequence (P43220 24-463): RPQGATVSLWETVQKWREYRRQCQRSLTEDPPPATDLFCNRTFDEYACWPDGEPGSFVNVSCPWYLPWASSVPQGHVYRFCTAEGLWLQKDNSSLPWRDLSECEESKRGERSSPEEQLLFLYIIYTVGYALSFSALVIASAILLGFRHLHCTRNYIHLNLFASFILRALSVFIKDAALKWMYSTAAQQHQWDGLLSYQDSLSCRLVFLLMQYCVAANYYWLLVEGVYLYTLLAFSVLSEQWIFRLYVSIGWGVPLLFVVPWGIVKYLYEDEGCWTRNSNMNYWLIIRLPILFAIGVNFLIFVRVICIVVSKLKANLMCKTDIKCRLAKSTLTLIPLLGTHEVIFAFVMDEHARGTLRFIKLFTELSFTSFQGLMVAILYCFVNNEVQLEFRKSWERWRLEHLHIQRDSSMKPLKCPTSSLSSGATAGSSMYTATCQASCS
In short: (§1)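 Peptide-stimulated cAMP measured by two-step HTRF after a 30 min room-temperature incubation with receptor-expressing cells (hGLP-1R, hGIPR at 1×10^5 cells/ml; hGCGR at 2×10^5 cells/ml). Duplicate dilutions; EC50 from 4-parameter logistic fit of % Delta F.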

[2] = molecular target: T2, human glucagon receptor (GCGR) (Homo sapiens, UniProt P47871); assay: cAMP assay, human GCGR cells
T2 construct: expressed in transfected cells
T2 sequence (P47871 26-477): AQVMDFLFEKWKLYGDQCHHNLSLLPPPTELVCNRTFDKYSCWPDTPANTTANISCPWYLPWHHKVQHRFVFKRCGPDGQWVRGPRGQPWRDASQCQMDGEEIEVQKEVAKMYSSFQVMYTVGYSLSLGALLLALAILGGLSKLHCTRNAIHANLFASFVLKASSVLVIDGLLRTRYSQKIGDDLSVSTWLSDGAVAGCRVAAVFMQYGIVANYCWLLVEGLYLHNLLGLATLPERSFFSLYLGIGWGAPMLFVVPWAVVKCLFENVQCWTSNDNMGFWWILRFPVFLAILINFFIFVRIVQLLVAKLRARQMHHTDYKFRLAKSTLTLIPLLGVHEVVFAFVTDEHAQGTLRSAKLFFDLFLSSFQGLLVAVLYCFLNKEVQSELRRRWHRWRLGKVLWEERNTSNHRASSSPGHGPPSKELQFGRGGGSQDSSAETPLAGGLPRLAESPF
In short: as §1

[3] = molecular target: T3, human glucose-dependent insulinotropic peptide receptor (GIPR) (Homo sapiens, UniProt P48546); assay: cAMP assay, human GIPR cells
T3 construct: expressed in transfected cells
T3 sequence (P48546 22-466): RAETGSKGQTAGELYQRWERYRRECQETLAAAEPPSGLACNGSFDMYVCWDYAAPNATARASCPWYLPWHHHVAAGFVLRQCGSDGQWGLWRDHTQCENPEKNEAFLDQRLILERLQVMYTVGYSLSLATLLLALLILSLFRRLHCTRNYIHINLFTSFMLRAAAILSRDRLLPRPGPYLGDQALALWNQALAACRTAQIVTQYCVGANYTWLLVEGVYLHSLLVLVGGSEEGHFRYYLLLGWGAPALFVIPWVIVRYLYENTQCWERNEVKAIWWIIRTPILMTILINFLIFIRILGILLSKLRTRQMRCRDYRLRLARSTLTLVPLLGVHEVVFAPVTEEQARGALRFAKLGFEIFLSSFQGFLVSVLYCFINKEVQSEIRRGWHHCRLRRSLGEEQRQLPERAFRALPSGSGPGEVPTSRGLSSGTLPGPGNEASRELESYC
In short: as §1

[4] = cAMP assay, first determination (n1), read-out: Primary assay EC50 GLP-1R n1
[5] = cAMP assay, second determination (n2), read-out: Primary assay EC50 GLP-1R n2
[6] = mean of n1 and n2, read-out: Mean pM GLP-1R
[7] = cAMP assay, first determination (n1), read-out: Primary assay EC50 Gluc-R (n1)
[8] = cAMP assay, second determination (n2), read-out: Primary assay EC50 Gluc-R (n2)
[9] = cAMP assay, first determination (n1), read-out: Primary assay EC50 GIP-R (n1)
[10] = cAMP assay, second determination (n2), read-out: Primary assay EC50 GIP-R (n2)

EC50 [1, 4]	EC50 [1, 5]	EC50 [1, 6]	EC50 [2, 7]	EC50 [2, 8]	EC50 [3, 9]	EC50 [3, 10]	EC50 ([1]; tris-lipidated peptides, mean of n1 and n2, read-out: Primary assay EC50 Mean pM GLP-1R)	EC50 ([1]; tris-lipidated peptides, replicate n1, read-out: Primary assay EC50 GLP-1R n1)	EC50 ([1]; tris-lipidated peptides, replicate n2, read-out: Primary assay EC50 GLP-1R n2)	EC50 ([2]; tris-lipidated peptides, first replicate, read-out: Primary assay EC50 Gluc-R (n1))	EC50 ([3]; tris-lipidated peptides, first replicate, read-out: Primary assay EC50 GIP-R (n1))	SMILES
920 pM	570 pM	746 pM	≥ 27 nM	≥ 27 nM	≥ 27 nM	≥ 27 nM						CCCCCCCCCCCCCCCC(=O)N[C@@H](CCC(=O)NCCCC[C@H](NC(=O)[C@H](CCC(=O)O)NC(=O)C(C)(C)NC(=O)[C@@H](N)Cc1c[nH]cn1)C(=O)N[C@@H](CO)C(=O)N[C@@](C)(Cc1ccccc1)C(=O)N[C@H](C(=O)N[C@@H](CO)C(=O)N[C@@H](CC(=O)O)C(=O)N[C@H](C(=O)N[C@@](C)(CO)C(=O)N[C@@H](CO)C(=O)N[C@@](C)(Cc1ccccc1)C(=O)N[C@@H](CC(C)C)C(=O)N[C@@H](CCC(=O)O)C(=O)NCC(=O)N[C@@H](CCC(=O)O)C(=O)N[C@@H](C)C(=O)N[C@@H](C)C(=O)N[C@@](C)(CCCCN)C(=O)N[C@@H](CCC(=O)O)C(=O)N[C@@](C)(Cc1ccccc1)C(=O)N[C@H](C(=O)N[C@@H](C)C(=O)N[C@@](C)(Cc1ccccc1)C(=O)N[C@H](C(=O)N[C@H](C(=O)N[C@@](C)(CCCCN)C(=O)NCC(=O)NCC(N)=O)C(C)C)C(C)C)[C@@H](C)CC)C(C)C)[C@@H](C)O)C(=O)O [compound 96] (H-H[Aib]EK([γGlu-Palmitoyl])S[αMeF]TSDV[αMeS]S[αMeF]LEGEAA[αMeK]E[αMeF]IA[αMeF]VV[αMeK]GG-NH2; N-terminus assumed)
							195 pM	167 pM	224 pM	19.6 nM	19.6 nM	CCCCCCCCCCCC(=O)N[C@@H](CCC(=O)NCCOCCOCC(=O)NCCOCCOCC(=O)NCCCC[C@H](NC(=O)[C@H](CCC(=O)O)NC(=O)CNC(=O)[C@H](CCC(=O)O)NC(=O)[C@H](CCCCNC(=O)COCCOCCNC(=O)COCCOCCNC(=O)CC[C@H](NC(=O)CCCCCCCCCCC)C(=O)O)NC(=O)[C@H](Cc1ccc(O)cc1)NC(=O)[C@H](CO)NC(=O)[C@](C)(CO)NC(=O)[C@@H](NC(=O)[C@H](CC(=O)O)NC(=O)[C@H](CO)NC(=O)[C@@H](NC(=O)[C@](C)(Cc1ccccc1)NC(=O)[C@H](CO)NC(=O)CNC(=O)[C@H](CCC(=O)O)NC(=O)C(C)(C)NC(=O)[C@@H](N)Cc1c[nH]cn1)[C@@H](C)O)C(C)C)C(=O)N[C@@H](C)C(=O)N[C@@](C)(CCCCN)C(=O)N[C@@H](CCC(=O)O)C(=O)N[C@@H](Cc1ccccc1)C(=O)N[C@H](C(=O)N[C@@H](C)C(=O)N[C@@H](Cc1ccccc1)C(=O)N[C@@H](CCCCNC(=O)COCCOCCNC(=O)COCCOCCNC(=O)CC[C@H](NC(=O)CCCCCCCCCCC)C(=O)O)C(=O)N[C@H](C(=O)N[C@@H](CCC(=O)O)C(=O)NCC(=O)NCC(N)=O)C(C)C)[C@@H](C)CC)C(=O)O [compound 485] (H-H[Aib]EGS[αMeF]TSDV[αMeS]SYK([AEEA-AEEA-γGlu-Lauroyl])EGEK([AEEA-AEEA-γGlu-Lauroyl])A[αMeK]EFIAFK([AEEA-AEEA-γGlu-Lauroyl])VEGG-NH2)
3300 pM	7900 pM	5600 pM	≥ 740 nM	≥ 740 nM	≥ 740 nM	≥ 740 nM						CC[C@H](C)[C@H](NC(=O)[C@H](Cc1ccccc1)NC(=O)[C@H](CCC(=O)O)NC(=O)[C@H](CCCCN)NC(=O)[C@H](C)NC(=O)[C@H](C)NC(=O)[C@H](CCC(N)=O)NC(=O)CNC(=O)[C@H](CCC(=O)O)NC(=O)[C@H](CC(C)C)NC(=O)[C@H](Cc1ccc(O)cc1)NC(=O)[C@H](CO)NC(=O)C(C)(C)NC(=O)[C@@H](NC(=O)[C@H](CC(=O)O)NC(=O)C(C)(C)NC(=O)[C@@H](NC(=O)[C@H](Cc1ccccc1)NC(=O)[C@@H](NC(=O)CNC(=O)[C@H](CCC(=O)O)NC(=O)C(C)(C)NC(=O)[C@@H](N)Cc1c[nH]cn1)[C@@H](C)O)[C@@H](C)O)C(C)C)C(=O)N[C@@H](C)C(=O)N[C@@H](Cc1c[nH]c2ccccc12)C(=O)N[C@@H](CC(C)C)C(=O)N[C@H](C(=O)N[C@@H](CCCCN)C(=O)NCC(=O)N[C@@H](CCCNC(=N)N)C(N)=O)C(C)C [compound 24] (H-H[Aib]EGTFT[Aib]DV[Aib]SYLEGQAAKEFIAWLVKGR-NH2)
